According to patent US8013153B2, “Substituted pyrimidine kinase inhibitors” (Janssen Pharmaceutica, N.V., priority 2006, dated 2011):

What was measured:
murine Aurora-A = molecular target: T1, murine Aurora-A (Mus musculus, UniProt P97477); assay: Aurora-A Screening Assay; format: biochemical
T1 construct: replaced with the full length protein encoding the murine Aurora-A; made in house; host or cells: sf9 insect cells
T1 sequence (P97477 1-395): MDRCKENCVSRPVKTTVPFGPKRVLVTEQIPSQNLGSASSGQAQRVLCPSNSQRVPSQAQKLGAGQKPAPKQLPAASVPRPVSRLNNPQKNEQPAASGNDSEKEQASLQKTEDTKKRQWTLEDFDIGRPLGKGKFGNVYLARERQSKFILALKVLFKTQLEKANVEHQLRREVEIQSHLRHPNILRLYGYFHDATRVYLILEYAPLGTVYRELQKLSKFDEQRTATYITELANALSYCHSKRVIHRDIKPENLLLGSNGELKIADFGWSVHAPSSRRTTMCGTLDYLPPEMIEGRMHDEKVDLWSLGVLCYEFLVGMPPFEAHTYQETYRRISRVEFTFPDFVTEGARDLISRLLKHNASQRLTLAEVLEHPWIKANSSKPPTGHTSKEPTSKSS

RET cytoplasmic domain = molecular target: T2, RET cytoplasmic domain (Homo sapiens, UniProt P07949); assay: RET Kinase Screening Assay; format: biochemical
T2 construct: the RET cytoplasmic domain consisting of the last 492 amino acids of the intracellular domain; histidine tag (N); made in house; host or cells: Hi5 insect cells
T2 sequence (P07949 658-1114 limits assumed): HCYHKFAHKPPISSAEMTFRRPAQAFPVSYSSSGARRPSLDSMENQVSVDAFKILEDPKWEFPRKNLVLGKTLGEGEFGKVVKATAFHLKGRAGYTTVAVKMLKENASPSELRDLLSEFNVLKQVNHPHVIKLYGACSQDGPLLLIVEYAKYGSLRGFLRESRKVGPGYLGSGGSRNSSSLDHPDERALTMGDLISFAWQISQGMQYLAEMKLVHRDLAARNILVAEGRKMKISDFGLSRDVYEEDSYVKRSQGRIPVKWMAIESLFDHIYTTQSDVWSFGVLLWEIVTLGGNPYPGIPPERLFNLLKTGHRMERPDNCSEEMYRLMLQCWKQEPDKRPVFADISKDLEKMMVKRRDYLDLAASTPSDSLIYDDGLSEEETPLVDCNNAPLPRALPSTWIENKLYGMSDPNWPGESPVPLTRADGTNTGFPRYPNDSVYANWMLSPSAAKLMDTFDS

HER2 cytoplasmic domain = molecular target: T3, HER2 cytoplasmic domain (Homo sapiens, UniProt P04626); assay: HER2 Kinase Screening Assay; format: biochemical; details: > means no observed 50% inhibition at the indicated test concentration; ~ means approximately 50% inhibition at that concentration
T3 construct: polyhistidine (N)

CDK1:Cyclin-B = molecular target: T4, CDK1:Cyclin-B (Homo sapiens, UniProt P06493); assay: CDK1 Screening Assay; format: biochemical
T4 construct: purchased New England Biolabs, Beverly, Mass; 6020; host or cells: insect cells

A375 malignant melanoma = assay: Inhibition of in vitro cell proliferation (A375); format: cell-based, human; details: Homo sapiens, A-375, 14C-thymidine incorporation;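 further: cells plated for 24 h, given compound for 24 h, then labelled with 14C-thymidine for another 24 h, with DMSO-only wells as control and counts read by scintillation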
HCT-116 colon carcinoma = assay: Inhibition of in vitro cell proliferation (HCT116); format: cell-based, human; details: Homo sapiens, HCT-116, 14C-thymidine incorporation;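 further: cells exposed to compound for 24 h, then 14C-thymidine added for a further 24 h and its uptake into DNA counted by scintillation, DMSO-only wells as control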
[1] = molecular target: T5, rat VEGF-R2 kinase domain (Rattus norvegicus, UniProt O08775); assay: VEGF-R2 Screening Assay; format: biochemical; details: > means no observed 50% inhibition at the indicated test concentration; ~ means approximately 50% inhibition at that concentration; read-out: IC50 VEGF-R2
T5 construct: amino acids 786-1343 of the rat VEGF-R2 kinase domain; polyhistidine (N)

[2] = system: HeLa cervical adenocarcinoma; assay: Inhibition of in vitro cell proliferation (HeLa); format: cell-based, human; details: Homo sapiens, 14C-thymidine incorporation;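 further: cells exposed to compound for 24 h, then labelled 24 h with methyl 14C-thymidine, with uptake into DNA counted by scintillation against DMSO-only control wells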

T5 sequence (O08775 786-1343): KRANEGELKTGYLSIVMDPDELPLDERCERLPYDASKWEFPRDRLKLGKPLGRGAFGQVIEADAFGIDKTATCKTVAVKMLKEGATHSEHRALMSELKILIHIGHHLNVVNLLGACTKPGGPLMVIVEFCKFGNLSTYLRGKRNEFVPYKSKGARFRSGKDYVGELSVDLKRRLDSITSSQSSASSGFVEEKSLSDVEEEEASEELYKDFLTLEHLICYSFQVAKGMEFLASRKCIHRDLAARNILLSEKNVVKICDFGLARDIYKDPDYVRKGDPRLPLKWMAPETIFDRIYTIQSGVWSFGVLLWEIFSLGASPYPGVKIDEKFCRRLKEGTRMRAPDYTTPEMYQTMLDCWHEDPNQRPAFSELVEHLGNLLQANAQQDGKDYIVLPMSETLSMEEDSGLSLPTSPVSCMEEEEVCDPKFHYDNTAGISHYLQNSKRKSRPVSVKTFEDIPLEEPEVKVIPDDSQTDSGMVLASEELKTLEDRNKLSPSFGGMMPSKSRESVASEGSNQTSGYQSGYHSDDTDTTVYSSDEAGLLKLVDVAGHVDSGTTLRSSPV
T3 sequence (P04626 676-1255 limits assumed): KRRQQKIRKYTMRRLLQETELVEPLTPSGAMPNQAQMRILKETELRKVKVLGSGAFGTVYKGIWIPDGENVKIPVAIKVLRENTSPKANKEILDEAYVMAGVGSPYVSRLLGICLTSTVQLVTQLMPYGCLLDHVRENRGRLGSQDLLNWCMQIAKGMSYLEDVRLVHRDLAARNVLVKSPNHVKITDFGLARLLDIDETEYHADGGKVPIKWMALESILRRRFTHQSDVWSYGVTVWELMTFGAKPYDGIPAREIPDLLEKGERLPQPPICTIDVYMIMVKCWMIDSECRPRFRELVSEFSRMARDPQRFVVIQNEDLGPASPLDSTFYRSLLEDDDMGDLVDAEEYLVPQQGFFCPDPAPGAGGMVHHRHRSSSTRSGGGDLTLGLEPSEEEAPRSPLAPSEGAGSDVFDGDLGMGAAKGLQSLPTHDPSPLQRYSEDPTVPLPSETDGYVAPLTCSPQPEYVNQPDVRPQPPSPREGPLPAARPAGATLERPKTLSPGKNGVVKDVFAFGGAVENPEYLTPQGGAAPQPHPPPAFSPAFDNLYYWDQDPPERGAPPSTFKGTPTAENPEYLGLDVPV
T4 sequence (P06493 whole entry): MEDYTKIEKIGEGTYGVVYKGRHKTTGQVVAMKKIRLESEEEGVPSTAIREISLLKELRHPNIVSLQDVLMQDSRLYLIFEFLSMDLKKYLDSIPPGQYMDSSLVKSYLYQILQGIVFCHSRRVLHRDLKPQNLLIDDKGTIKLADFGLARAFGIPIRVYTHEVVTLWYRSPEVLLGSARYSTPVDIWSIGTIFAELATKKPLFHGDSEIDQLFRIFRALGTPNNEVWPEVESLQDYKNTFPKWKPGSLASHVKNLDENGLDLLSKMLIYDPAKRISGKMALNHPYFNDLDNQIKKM
T4 sequence (P14635 whole entry partner): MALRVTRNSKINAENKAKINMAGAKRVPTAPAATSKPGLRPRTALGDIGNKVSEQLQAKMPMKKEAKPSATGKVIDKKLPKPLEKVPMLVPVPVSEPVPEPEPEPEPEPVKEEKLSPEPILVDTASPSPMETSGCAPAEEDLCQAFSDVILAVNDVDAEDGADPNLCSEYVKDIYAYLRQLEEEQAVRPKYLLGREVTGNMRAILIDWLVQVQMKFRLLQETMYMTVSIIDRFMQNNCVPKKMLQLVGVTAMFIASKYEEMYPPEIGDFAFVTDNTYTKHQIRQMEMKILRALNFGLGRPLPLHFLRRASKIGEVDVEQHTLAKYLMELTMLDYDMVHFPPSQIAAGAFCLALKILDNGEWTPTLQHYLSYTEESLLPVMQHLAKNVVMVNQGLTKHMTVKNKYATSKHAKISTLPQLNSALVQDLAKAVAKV

SMILES	IC50 (murine Aurora-A) [µM]	IC50 (RET cytoplasmic domain) [µM]	IC50 (HER2 cytoplasmic domain) [µM]	IC50 (CDK1:Cyclin-B) [µM]	IC50 (A375 malignant melanoma) [µM]	IC50 (HCT-116 colon carcinoma) [µM]	IC50 [1] [µM]	IC50 [2] [µM]
Cc1cc2c(F)c(Oc3ncnc(N)c3C=NOCCN(C)C)ccc2[nH]1 [Cpd 15, 4-amino-6-(4-fluoro-2-methyl-1H-indol-5-yloxy)-pyrimidine-5-carbaldehyde O-(2-dimethylamino-ethyl)-oxime]	> 100	> 100	36.1	> 100	–	–	–	–
C#CCON=Cc1c(N)ncnc1Oc1ccc2[nH]c(C)cc2c1F [Cpd 30, 4-amino-6-(4-fluoro-2-methyl-1H-indol-5-yloxy)-pyrimidine-5-carbaldehyde O-prop-2-ynyl-oxime]	> 100	~10	> 10	> 100	–	–	–	–
Cc1cc2c(F)c(Oc3ncnc(N)c3C=NOCCN3CCOCC3)ccc2[nH]1 [Cpd 14, 4-amino-6-(4-fluoro-2-methyl-1H-indol-5-yloxy)-pyrimidine-5-carbaldehyde O-(2-morpholin-4-yl-ethyl)-oxime]	> 100	> 100	~10	> 100	–	–	–	–
CON=Cc1c(N)ncnc1Oc1ccc(NC(=O)Nc2ccc(C)cc2)c(Cl)c1 [Cpd 77, 1-{4-[6-amino-5-(methoxyimino-methyl)-pyrimidin-4-yloxy]-2-chloro-phenyl}-3-p-tolyl-urea]	> 100	–	> 100	> 100	> 100	> 100	0.0016	> 100
CNC(=O)Nc1ccc(Oc2ncnc(N)c2C=NOC)cc1F [Cpd 72, 1-{4-[6-amino-5-(methoxyimino-methyl)-pyrimidin-4-yloxy]-2-fluoro-phenyl}-3-methyl-urea]	> 100	–	> 10	> 100	> 10	> 10	0.142	> 10
CCCCNC(=O)Nc1ccc(Oc2ncnc(N)c2C=NOC)cc1Cl [Cpd 64, 1-{4-[6-amino-5-(methoxyimino-methyl)-pyrimidin-4-yloxy]-2-chloro-phenyl}-3-butyl-urea]	> 100	–	> 100	> 100	> 100	> 100	0.0072	> 100
CON=Cc1c(N)ncnc1Oc1ccc(NC(=O)Nc2nc(C)cs2)c(Cl)c1 [Cpd 89, 1-{4-[6-amino-5-(methoxyimino-methyl)-pyrimidin-4-yloxy]-2-chloro-phenyl}-3-(4-methyl-thiazol-2-yl)-urea]	> 100	–	> 1	> 100	2.19	> 10	0.0039	> 10
CON=Cc1c(N)ncnc1Oc1ccc(NC(=O)Nc2ccc(F)cc2F)c(Cl)c1 [Cpd 61, 1-{4-[6-amino-5-(methoxyimino-methyl)-pyrimidin-4-yloxy]-2-chloro-phenyl}-3-(2,4-difluoro-phenyl)-urea]	> 100	–	> 100	> 100	> 100	> 10	0.003	> 100
CON=Cc1c(N)ncnc1Oc1ccc(OCc2ccccc2)cc1 [Cpd 110, 4-amino-6-[4-(benzyloxy)phenoxy]-5-pyrimidinecarboxaldehyde O-methyloxime]	> 100	–	0.555	> 100	> 100	> 100	~1	> 100
Cc1cc2c(F)c(Oc3ncnc(N)c3C=NOCCCCN3CCCCC3)ccc2[nH]1 [Cpd 24, 4-amino-6-(4-fluoro-2-methyl-1H-indol-5-yloxy)-pyrimidine-5-carbaldehyde O-(4-piperidin-1-yl-butyl)-oxime]	> 100	–	0.282	> 100	> 100	> 100	0.085	> 100
